According to PubChem BioAssay (NCI):
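Each compound was tested at five concentrations against cells in 96-well plates for 48 hours. Definition used: TGI = concentration required for complete inhibition of growth.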

Assays:
Assay in all cases: NCI tumour cell line growth inhibition, 48 h
[1] = test system: HS 578T breast
[2] = test system: SK-OV-3 ovarian
[3] = test system: MCF7 breast
[4] = test system: SW-620 colon
[5] = test system: HOP-18 NSCLC
[6] = test system: M14 melanoma
[7] = test system: BT-549 breast
[8] = test system: LOX IMVI melanoma
[9] = test system: SN12C renal
[10] = test system: OVCAR-8 ovarian
[11] = test system: SK-MEL-5 melanoma
[12] = test system: RPMI-8226 leukemia
[13] = test system: PC-3 prostate
[14] = test system: OVCAR-3 ovarian
[15] = test system: U251 CNS
[16] = test system: HCC-2998 colon
[17] = test system: DLD-1 colon
[18] = test system: A498 renal
[19] = test system: SK-MEL-28 melanoma
[20] = test system: HCT-116 colon
[21] = test system: OVCAR-4 ovarian
[22] = test system: IGROV1 ovarian
[23] = test system: SF-268 CNS
[24] = test system: SK-MEL-2 melanoma
[25] = test system: MDA-MB-231 breast
[26] = test system: A549 NSCLC
[27] = test system: HL-60(TB) leukemia
[28] = test system: HCT-15 colon
[29] = test system: EKVX NSCLC
[30] = test system: UACC-62 melanoma
[31] = test system: SNB-19 CNS
[32] = test system: SNB-75 CNS
[33] = test system: MDA-MB-435
[34] = test system: MOLT-4 leukemia
[35] = test system: UACC-257 melanoma
[36] = test system: DMS 273 small cell lung
[37] = test system: UO-31 renal
[38] = test system: HOP-62 NSCLC
[39] = test system: COLO 205 colon
[40] = test system: KM12 colon
[41] = test system: SNB-78 CNS
[42] = test system: RXF 393 renal
[43] = test system: 786-0 renal
[44] = test system: KM20L2 colon
[45] = test system: K-562 leukemia
[46] = test system: SF-295 CNS
[47] = test system: NCI/ADR-RES ovarian
[48] = test system: P388 leukemia
[49] = test system: CAKI-1 renal
[50] = test system: NCI-H460 lung
[51] = test system: MALME-3M melanoma
[52] = test system: ACHN renal
[53] = test system: HOP-92 NSCLC
[54] = test system: P388/ADR leukemia
[55] = test system: M19-MEL melanoma
[56] = test system: SR leukemia
[57] = test system: DU-145 prostate
[58] = test system: MDA-N
[59] = test system: SN12K1 renal
[60] = test system: OVCAR-5 ovarian
[61] = test system: T-47D breast
[62] = test system: CCRF-CEM leukemia
[63] = test system: SF-539 CNS
[64] = test system: NCI-H23 lung
[65] = test system: TK-10 renal
[66] = test system: NCI-H226 lung
[67] = test system: NCI-H522 lung
[68] = test system: HT29 colon

Structure (SMILES): CC(C)[C@](O)(C(=O)OCC1=CC[N+]2([O-])CC[C@@H](O)[C@@H]12)[C@H](C)O (stereo partly drawn)
- TGI [1]: > 10 mM
- TGI [2]: > 10 mM
- TGI [3]: > 10 mM
- TGI [4]: > 10 mM
- TGI [5]: > 10 mM
- TGI [6]: > 10 mM
- TGI [7]: > 10 mM
- TGI [8]: > 10 mM
- TGI [9]: > 10 mM
- TGI [10]: > 7.94 mM
- TGI [11]: > 10 mM
- TGI [12]: > 10 mM
- TGI [13]: > 10 mM
- TGI [14]: > 10 mM
- TGI [15]: > 10 mM
- TGI [16]: > 10 mM
- TGI [17]: > 10 mM
- TGI [18]: > 10 mM
- TGI [19]: > 10 mM
- TGI [20]: > 10 mM
- TGI [21]: > 10 mM
- TGI [22]: > 10 mM
- TGI [23]: > 10 mM
- TGI [24]: > 10 mM
- TGI [25]: > 10 mM
- TGI [26]: > 10 mM
- TGI [27]: 9.86 mM
- TGI [28]: > 10 mM
- TGI [29]: > 10 mM
- TGI [30]: 9.92 mM
- TGI [31]: > 10 mM
- TGI [32]: > 10 mM
- TGI [33]: > 10 mM
- TGI [34]: > 10 mM
- TGI [35]: > 10 mM
- TGI [36]: > 10 mM
- TGI [37]: > 10 mM
- TGI [38]: > 3.98 mM
- TGI [39]: > 10 mM
- TGI [40]: > 10 mM
- TGI [41]: > 10 mM
- TGI [42]: > 7.94 mM
- TGI [43]: > 10 mM
- TGI [44]: > 10 mM
- TGI [45]: > 10 mM
- TGI [46]: > 10 mM
- TGI [47]: > 10 mM
- TGI [48]: > 10 mM
- TGI [49]: > 9.52 mM
- TGI [50]: > 9.54 mM
- TGI [51]: > 10 mM
- TGI [52]: > 10 mM
- TGI [53]: > 10 mM
- TGI [54]: > 10 mM
- TGI [55]: > 10 mM
- TGI [56]: > 10 mM
- TGI [57]: > 10 mM
- TGI [58]: > 10 mM
- TGI [59]: > 10 mM
- TGI [60]: > 10 mM
- TGI [61]: > 10 mM
- TGI [62]: > 10 mM
- TGI [63]: > 10 mM
- TGI [64]: > 6 mM
- TGI [65]: > 10 mM
- TGI [66]: > 10 mM
- TGI [67]: > 10 mM
- TGI [68]: > 10 mM
